Data published in patent publication US20110190249A1, “THERAPEUTIC METHODS AND USES OF SAPOGENINS AND THEIR DERIVATIVES” (PHYTOPHARM PLC, priority 2002, published 2011).

Legend:
aged Sprague-Dawley rats = assay: Y-maze learning and memory test in aged rats; format: in vivo, rat; settings: 18 mg kg−1 day−1 oral in food, 3 months
Experimental: (§1) Aged Sprague-Dawley rats aged were divided into different groups, one control and groups treated for 2-3 months with either sarsasapogenin, episarsasapogenin cathylate or smilagenin (18 mg kg^−1 day^−1, n=10). A control group (n=14) of untreated young rats was also included in the study. The daily dose of drug was mixed in a minimum amount of food and was administered every morning separately to each rat.
A Y-maze apparatus was used for the learning and memory test. On the floor of each arm of the Y-maze is an array of copper rods to which electric current is applied whenever needed, with adjustable voltage. Each arm is 45 cm long and has a 15 W lamp at the end, which is turned on when needed. After 3 months drug administration, each rat was trained for 7 consecutive days, as follows. For each training session, the rat was put into one arm of the Y-maze, after two minutes rest, an electrical current was applied to the copper rods and the lamp of the clockwise arm was illuminated to indicate the non-stimulation area. If the rat went into that arm, one correct response was recorded, otherwise, one wrong response was recorded: This stimulation-response test was repeated 20 times each day, with a pause of 5 sec between each two consecutive tests. The number of correct responses following the twenty tests on the seventh day was used to express learning ability, (the higher the number the better the learning ability). The rats were then left resting for 30 days and the procedure was repeated once more. The number of correct responses of the 20 tests after the 30 day rest period was used to represent the memory ability

dopamine (D) 2 receptor = assay: Dopamine D2 receptor density in aged rats; format: in vivo, rat; settings: aged rats treated 3 months; aged untreated 153.8±40.5, young 200.6±50.9
Experimental: as §1
(§2) By contrast, smilagenin and sarsasapogenin treatment in aged rats for 3 months restored the D1 and D2 receptor density (smilagenin 177±10.9; 217±45.7 fmol/mg protein; sarsasapogenin 172.0±44.0; 206.4±60.5 respectively).

[1] = system: rat primary cortical neurones; assay: Neurite outgrowth in rat primary cortical neurones; format: cell-based; settings: for Number of neurones displaying neurites, Mean ± s.e.m (%): control 47 ± 2; for Neurite length measured using optical micrometry, Mean ± s.e.m (%): control 100 ± 4
Source text: Neurodegenerative disorders are characterised by a progressive loss of neurones and degradation of neuronal processes (neurites). Agents that induce neurite outgrowth may promote the formation of new connections between neurones and ameliorate the symptoms of neurodegenerative conditions (Katzman et al, Faseb J., 5, 278-286, 1991).

[2] = system: muscarinic acetylcholine receptor; assay: Brain muscarinic acetylcholine receptor density in aged rats (dual-site competitive ligand binding); format: in vivo, rat; settings: 18 mg kg−1 day−1 oral, 2-3 months
Experimental: as §1
Muscarinic acetylcholine receptor density in the brain was measured. Tissue was prepared as follows: brains were removed quickly after decapitation, frozen in dry ice, and transferred to a freezer. The brains were homogenised and the pellet was finally suspended in buffer.
The dual-site competitive ligand binding assay was used to measure muscarinic acetylcholine receptor density.

dopamine (D) 1 receptor = assay: Dopamine D1 receptor density in aged rats; format: in vivo, rat; settings: aged rats treated 3 months; aged untreated 129.2±36.8, young 157.5±33.2
Experimental: as §1, §2

SMILES: C[C@@H]1CC[C@@]2(OC1)O[C@H]1C[C@H]3[C@@H]4CC[C@@H]5C[C@@H](O)CC[C@]5(C)[C@H]4CC[C@]3(C)[C@H]1[C@@H]2C [smilagenin]
- Learning and memory ability (Y-maze) (aged Sprague-Dawley rats): restored the learning and memory ability
- D2 receptor density (dopamine (D) 2 receptor): 217±45.7 fmol/mg protein
- Number of neurones displaying neurites, Mean ± s.e.m (%) ([1]; 0.3 pM): 63 ± 2%
- Neurite length measured using optical micrometry, Mean ± s.e.m (%) ([1]; 0.3 pM): 159 ± 5%
- Number of neurones displaying neurites, Mean ± s.e.m (%) ([1]; 3 pM): 63 ± 2%
- Neurite length measured using optical micrometry, Mean ± s.e.m (%) ([1]; 3 pM): 190 ± 8%
- Number of neurones displaying neurites, Mean ± s.e.m (%) ([1]; 30 pM): 66 ± 2%
- Neurite length measured using optical micrometry, Mean ± s.e.m (%) ([1]; 30 pM): 204 ± 6%
- Muscarinic acetylcholine receptor density in brain [2]: significantly restored
- D1 receptor density (dopamine (D) 1 receptor): 177±10.9 fmol/mg protein
